Measurements as given in patent US9364458B2, “Stabilized pharmaceutical dosage forms comprising atrasentan” (AbbVie Inc., priority 2013, dated 2016).
Structures can show the parent of a compound that is named as a salt.

Legend:
[1] = test system: subjects with diabetic nephropathy; assay: Phase IIb clinical trials of atrasentan; assay type: in vivo, human
From the text: The low dosing and the narrow therapeutic window for atrasentan have been confirmed through analysis of the data collected from recent Phase IIb clinical trials in subjects with diabetic nephropathy. These Phase IIb clinical trials evaluated the safety and efficacy of atrasentan to identify an appropriate balance between the systemic effects of atrasentan (which can lead to adverse side effects such as edema) and the efficacy effects of atrasentan. […] Reduction of residual albuminuria and the urinary-albumin-to-creatine ratio are surrogate endpoints generally associated with delaying the progression of end-stage renal disease and associated cardiovascular complications.

[2] = Dispersive surface energy by inverse gas chromatography; assay type: physicochemical
Experimental: Wet granulation blends prepared as described in Method 2 (atrasentan added dry to granulation bowl) and Method 3 (atrasentan added as HPMC suspension to granulation bowl) of Example 6 were analyzed prior to compression using inverse gas chromatography (“IGC”) to determine the surface energy of the blends. These measurements were compared to the measured values for pure atrasentan and pure HPMC.

[3] = Impurities / degradation products by HPLC in stability testing; assay type: physicochemical; conditions: mixtures with atrasentan and crospovidone, 80° C.
[4] = about 0.25 mg to about 1.25 mg daily
[5] = daily dose greater than about 1.25 mg

Compound: CCCCN(CCCC)C(=O)CN1C[C@H](c2ccc3c(c2)OCO3)[C@@H](C(=O)O)[C@@H]1c1ccc(OC)cc1 [atrasentan, (2R,3R,4S)-4-(1,3-benzodioxol-5-yl)-1-[2-(dibutylamino)-2-oxoethyl]-2-(4-methoxyphenyl)pyrrolidine-3-carboxylic acid]
- residual albuminuria [1, 4]: significantly reduce
- urinary-albumin-to-creatine ratio [1, 4]: significantly reduce
- adverse effects, particularly peripheral edema [1, 5]: increase in adverse effects
- efficacy relative to the 1.25 mg daily dose [1, 5]: without any further improvement in efficacy
- efficacy of daily dose ([1]; daily dose less than about 0.25 mg): sub-therapeutic

Compound: CCCCN(CCCC)C(=O)CN1C[C@H](c2ccc3c(c2)OCO3)[C@@H](C(=O)O)[C@@H]1c1ccc(OC)cc1 [Atrasentan Monohydrochloride]
- DISPERSIVE SURFACE ENERGY ([2]; Average): 50.9 mJ · m^−2
- DISPERSIVE SURFACE ENERGY ([2]; Run 1): 50.6 mJ · m^−2
- DISPERSIVE SURFACE ENERGY ([2]; Run 2): 51.4 mJ · m^−2

Compound: Cl.N[C@@H](CS)C(=O)O.O [L-cysteine hydrochloride monohydrate]
- stabilizing effect among the three anti-oxidants [3]: greatest stabilizing effect
